From patent publication US20250074891A1 (Anaxis Pharma Pty Ltd., priority 2021, published 2025)

What was measured:
Conditions in all cases: Table 35
RIP3 = RIP3 (Homo sapiens (Human), UniProt Q9Y572); experiment: KINOMEscan binding assay, RIP3
Method: (§1) Kinase assays. For most assays, kinase-tagged T7 phage strains were grown in parallel in 24-well blocks in an E. coli host derived from the BL21 strain. E. coli were grown to log-phase and infected with T7 phage from a frozen stock (multiplicity of infection=0.4) and incubated with shaking at 32° C. until lysis (90-150 minutes).
(§2) The Hill Slope was set to −1.

RIP1 = RIP1 (Homo sapiens (Human), UniProt Q13546); experiment: KINOMEscan binding assay, RIP1
MLKL (full length) = MLKL (full length) (Homo sapiens (Human), UniProt Q8NB16); experiment: KINOMEscan binding assay, MLKL (full length)
Method: as §1, §2

Sequence of RIP3 (Q9Y572 whole entry): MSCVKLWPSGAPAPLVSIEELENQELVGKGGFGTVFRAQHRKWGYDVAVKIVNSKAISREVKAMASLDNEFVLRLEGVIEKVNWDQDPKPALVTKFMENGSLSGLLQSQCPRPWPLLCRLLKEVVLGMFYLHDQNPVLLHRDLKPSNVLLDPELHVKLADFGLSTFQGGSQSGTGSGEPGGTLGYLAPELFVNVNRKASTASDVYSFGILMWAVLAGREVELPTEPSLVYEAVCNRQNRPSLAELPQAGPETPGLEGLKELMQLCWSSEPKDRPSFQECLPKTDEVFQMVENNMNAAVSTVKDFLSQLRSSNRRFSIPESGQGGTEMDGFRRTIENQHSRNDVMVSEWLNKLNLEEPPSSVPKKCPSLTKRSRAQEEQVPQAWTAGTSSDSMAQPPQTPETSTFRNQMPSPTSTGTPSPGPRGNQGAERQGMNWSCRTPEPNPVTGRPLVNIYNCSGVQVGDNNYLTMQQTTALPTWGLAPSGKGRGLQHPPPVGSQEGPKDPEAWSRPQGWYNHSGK
Sequence of RIP1 (Q13546 whole entry): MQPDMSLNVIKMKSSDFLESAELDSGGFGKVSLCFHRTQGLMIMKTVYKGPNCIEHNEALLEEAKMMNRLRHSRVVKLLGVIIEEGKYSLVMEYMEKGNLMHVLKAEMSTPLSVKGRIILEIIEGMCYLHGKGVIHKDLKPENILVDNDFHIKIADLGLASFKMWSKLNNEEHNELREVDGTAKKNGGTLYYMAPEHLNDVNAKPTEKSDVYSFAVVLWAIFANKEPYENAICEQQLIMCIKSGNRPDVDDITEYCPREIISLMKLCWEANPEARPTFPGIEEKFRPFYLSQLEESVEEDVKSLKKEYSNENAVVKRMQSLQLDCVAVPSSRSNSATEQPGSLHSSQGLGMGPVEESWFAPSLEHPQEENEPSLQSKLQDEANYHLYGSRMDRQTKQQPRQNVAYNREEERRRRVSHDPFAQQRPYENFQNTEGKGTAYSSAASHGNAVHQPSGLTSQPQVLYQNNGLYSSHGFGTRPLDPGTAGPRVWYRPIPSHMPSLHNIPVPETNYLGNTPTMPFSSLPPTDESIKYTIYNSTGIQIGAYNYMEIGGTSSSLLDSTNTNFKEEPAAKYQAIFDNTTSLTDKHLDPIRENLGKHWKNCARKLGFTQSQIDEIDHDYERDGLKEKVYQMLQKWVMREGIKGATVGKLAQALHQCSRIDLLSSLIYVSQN
Sequence of MLKL (full length) (Q8NB16 whole entry): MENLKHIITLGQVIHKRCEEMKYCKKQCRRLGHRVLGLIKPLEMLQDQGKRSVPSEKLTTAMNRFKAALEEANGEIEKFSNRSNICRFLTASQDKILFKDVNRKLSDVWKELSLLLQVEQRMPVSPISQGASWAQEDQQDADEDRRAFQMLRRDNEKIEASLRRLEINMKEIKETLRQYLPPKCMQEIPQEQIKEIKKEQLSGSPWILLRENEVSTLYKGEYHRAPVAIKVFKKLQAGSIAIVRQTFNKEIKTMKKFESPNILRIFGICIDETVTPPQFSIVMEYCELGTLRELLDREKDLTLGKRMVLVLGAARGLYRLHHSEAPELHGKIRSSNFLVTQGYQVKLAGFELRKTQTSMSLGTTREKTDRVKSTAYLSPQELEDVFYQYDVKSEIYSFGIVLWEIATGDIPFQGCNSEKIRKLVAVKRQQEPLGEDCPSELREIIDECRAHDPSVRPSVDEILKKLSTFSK

| Compound | Kd (RIP3) [µM] | Kd (RIP1) [µM] | Kd (MLKL (full length)) [µM] |
| --- | --- | --- | --- |
| Cc1cnc(Nc2[nH]nc(-c3ccc(NS(=O)(=O)CC(F)(F)F)c(OCc4ccc(Cl)cc4)c3)c2C(N)=O)cn1 [Compound 162, 3-(3-((4-chlorobenzyl)oxy)-4-((2,2,2-trifluoroethyl)sulfonamido)phenyl)-5-((5-methylpyrazin-2-yl)amino)-1H-pyrazole-4-carboxamide] | > 30 | > 30 | < 0.01 |
| CCS(=O)(=O)Nc1ccc(-c2n[nH]c(Nc3ccccn3)c2C(N)=O)cc1OCc1ccc(F)cc1 [Compound 30, 3-(4-(ethylsulfon-amido)-3-((4-fluorobenzyl)oxy)phenyl)-5-(pyridin-2-ylamino)-1H-pyrazole-4-carboxamide] | > 30 | > 30 | < 0.01 |
| N#Cc1cccc(Nc2[nH]nc(-c3ccc(NS(=O)(=O)C(F)F)cc3)c2C(N)=O)n1 [Compound 258, 5-[(6-cyanopyridin-2-yl)amino]-3-[4-(difluoromethanesulfonamido)phenyl]-1H-pyrazole-4-carboxamide] | > 30 | > 30 | < 0.01 |
| C[C@H](Oc1cc(-c2n[nH]c(Nc3cnccn3)c2C(N)=O)ccc1NS(=O)(=O)CC(F)(F)F)c1ccc(F)cc1 [Compound 164, (S)-3-(3-(1-(4-fluorophenyl)ethoxy)-4-((2,2,2-trifluoroethyl)sulfonamido)phenyl)-5-(pyrazin-2-ylamino)-1H-pyrazole-4-carboxamide] | > 30 | > 30 | < 0.01 |
| NC(=O)c1c(-c2ccc(NS(=O)(=O)C(F)F)c(OC(c3ccc(F)cc3)C3CCC3)c2)n[nH]c1Nc1cnccn1 (stereo not drawn) [Compound 236, 3-{3-[cyclobutyl(4-fluorophenyl)methoxy]-4-(difluoromethanesulfonamido)phenyl}-5-[(pyrazin-2-yl)amino]-1H-pyrazole-4-carboxamide] | > 30 | > 30 | < 0.01 |
| NC(=O)c1c(-c2ccc(NS(=O)(=O)C(F)F)c(OCc3ccc(Cl)cc3)c2)n[nH]c1Nc1cnc(C(F)(F)F)cn1 [Compound 235, 3-(3-((4-chlorobenzyl)oxy)-4-((difluoromethyl)sulfonamido)phenyl)-5-((5-(trifluoromethyl)pyrazin-2-yl)amino)-1H-pyrazole-4-carboxamide] | > 30 | > 30 | < 0.01 |
| Cc1cn(C)nc1Nc1[nH]nc(-c2ccc(NS(=O)(=O)C(F)F)c(O[C@@H](C)c3ccc(F)cc3)c2)c1C(N)=O [Compound 286, (S)-3-(4-((difluoromethyl)sulfonamido)-3-(1-(4-fluorophenyl)ethoxy)phenyl)-5-((1,4-dimethyl-1H-pyrazol-3-yl)amino)-1H-pyrazole-4-carboxamide] | > 30 | > 30 | < 0.01 |
| COc1ccc(Nc2[nH]nc(-c3ccc(NS(=O)(=O)CC(F)(F)F)c(OCc4ccc(F)cc4)c3)c2C(N)=O)cn1 [Compound 159, 3-(3-((4-fluorobenzyl)oxy)-4-((2,2,2-trifluoroethyl)sulfonamido)phenyl)-5-((6-methoxypyridin-3-yl)amino)-1H-pyrazole-4-carboxamide] | > 30 | > 30 | < 0.01 |
| CCS(=O)(=O)Nc1ccc(-c2n[nH]c(Nc3ccccn3)c2C(N)=O)cc1OCc1cccnc1 [Compound 31, 3-(4-(ethylsulfon-amido)-3-(pyridin-3-ylmethoxy)phenyl)-5-(pyridin-2-ylamino)-1H-pyrazole-4-carboxamide] | > 30 | > 30 | < 0.01 |
| NC(=O)c1c(-c2ccc(NS(=O)(=O)CC(F)(F)F)c(Oc3ccc(F)cc3)c2)n[nH]c1Nc1cccc(C(F)(F)F)n1 [Compound 148, 3-(3-(4-fluorophenoxy)-4-((2,2,2-trifluoroethyl)sulfonamido)phenyl)-5-((6-(trifluoromethyl)pyridine-2-yl)amino)-1H-pyrazole-4-carboxamide] | > 30 | > 30 | < 0.01 |
| CCS(=O)(=O)Nc1ccc(-c2n[nH]c(Nc3cnccn3)c2C(N)=O)c(OCc2ccc(F)cc2)c1 [Compound 21, 3-(4-(ethylsulfonamido)-2-((4-fluorobenzyl)oxy)phenyl)-5-(pyrazin-2-ylamino)-1H-pyrazole-4-carboxamide] | > 30 | > 30 | < 0.01 |
| C[C@H](Oc1cc(-c2n[nH]c(Nc3cc(C4CCOC4)on3)c2C(N)=O)ccc1NS(=O)(=O)C(F)F)c1ccc(F)cc1 (stereo partly drawn) [Compound 305, 3-(4-((difluoromethyl)sulfonamido)-3-((S)-1-(4-fluorophenyl)ethoxy)phenyl)-5-((5-(tetrahydrofuran-3-yl)isoxazol-3-yl)amino)-1H-pyrazole-4-carboxamide] | > 30 | > 30 | < 0.01 |
| NC(=O)c1c(-c2ccc(NS(=O)(=O)Cc3ccc(Cl)cc3)cc2)n[nH]c1Nc1cnccn1 [Compound 70, 3-(4-(((4-chlorophenyl)methyl)sulfonamido)phenyl)-5-(pyrazin-2-ylamino)-1H-pyrazole-4-carboxamide] | > 30 | > 30 | < 0.01 |

Second part, the compound after the results:

| Kd (RIP3) [µM] | Kd (RIP1) [µM] | Kd (MLKL (full length)) [µM] | Compound |
| --- | --- | --- | --- |
| > 30 | > 30 | < 0.01 | COCCOc1cc(Nc2[nH]nc(-c3ccc(NS(=O)(=O)CC#N)cc3)c2C(N)=O)ccn1 [Compound 110, 3-(4-((cyanomethyl)sulfonamido)phenyl)-5-((2-(2-methoxyethoxy)pyridin-4-yl)amino)-1H-pyrazole-4-carboxamide] |
| > 30 | > 30 | < 0.01 | NC(=O)c1c(-c2ccc(NS(=O)(=O)C3CC3)c(OCc3ccc(F)cc3)c2)n[nH]c1Nc1cnccn1 [Compound 169, 3-(4-(cyclopropanesulfonamido)-3-((4-fluorobenzyl)oxy)phenyl)-5-(pyrazin-2-ylamino)-1H-pyrazole-4-carboxamide] |
| > 30 | > 30 | < 0.01 | C[C@H](Oc1cc(-c2c(C(N)=O)c(Nc3cnccn3)nn2C)ccc1NS(=O)(=O)C(F)F)c1ccc(F)cc1 [Compound 253, 5-[4-(difluoromethanesulfonamido)-3-[(1S)-1-(4-fluorophenyl)ethoxy]phenyl]-1-methyl-3-[(pyrazin-2-yl)amino]-1H-pyrazole-4-carboxamide] |
| > 30 | > 30 | < 0.01 | NC(=O)c1c(-c2ccc(NS(=O)(=O)C(F)F)c(OCc3ccc(F)c(F)c3)c2)n[nH]c1Nc1cccc(C(F)(F)F)n1 [Compound 151, 3-(3-((3,4-difluorobenzyl)oxy)-4-((difluoromethyl)sulfonamido)phenyl)-5-((6-(trifluoromethyl)pyridine-2-yl)amino)-1H-pyrazole-4-carboxamide] |
| > 30 | > 30 | < 0.01 | CCS(=O)(=O)Nc1ccc(-c2n[nH]c(Nc3cnccn3)c2C(N)=O)cc1OCc1cccc(Cl)c1 [Compound 41, 3-(3-((3-chlorobenzyl)oxy)-4-(ethylsulfonamido)phenyl)-5-(pyrazin-2-ylamino)-1H-pyrazole-4-carboxamide] |
| > 30 | > 30 | < 0.01 | NC(=O)c1c(-c2ccc(NS(=O)(=O)C(F)F)c(OCc3ccc(F)cc3)c2)n[nH]c1Nc1ccc(C(F)(F)F)nc1 [Compound 188, 3-(4-((difluoromethyl)sulfonamido)-3-((4-fluorobenzyl)oxy)phenyl)-5-((6-(trifluoromethyl)pyridine-3-yl)amino)-1H-pyrazole-4-carboxamide] |
| > 30 | > 30 | < 0.01 | NC(=O)c1c(-c2ccc(NS(=O)(=O)CC(F)(F)F)c(OCc3ccc(F)cn3)c2)n[nH]c1Nc1cnccn1 [Compound 231, 3-(3-((5-fluoropyridin-2-yl)methoxy)-4-((2,2,2-trifluoroethyl)sulfonamido)phenyl)-5-(pyrazin-2-ylamino)-1H-pyrazole-4-carboxamide] |
| > 30 | > 30 | < 0.01 | NC(=O)c1c(-c2ccc(NS(=O)(=O)CCC(F)F)cc2)n[nH]c1Nc1cnccn1 [Compound 23, 3-(4-((3,3-difluoropropyl)sulfonamido)phenyl)-5-(pyrazin-2-ylamino)-1H-pyrazole-4-carboxamide] |
| > 30 | > 30 | < 0.01 | Cc1cnc(Nc2[nH]nc(-c3ccc(NS(=O)(=O)CC(F)(F)F)c(OCc4ccc(F)c(Cl)c4)c3)c2C(N)=O)cn1 [Compound 155, 3-(3-((3-chloro-4-fluorobenzyl)oxy)-4-((2,2,2-trifluoroethyl)sulfonamido)phenyl)-5-((5-methylpyrazin-2-yl)amino)-1H-pyrazole-4-carboxamide] |
| > 30 | > 30 | < 0.01 | NC(=O)c1c(-c2ccc(NS(=O)(=O)CC(F)(F)F)c(OCc3ccc(Cl)c(F)c3)c2)n[nH]c1Nc1cnccn1 [Compound 165, 3-(3-((4-chloro-3-fluorobenzyl)oxy)-4-((2,2,2-trifluoroethyl)sulfonamido)phenyl)-5-(pyrazin-2-ylamino)-1H-pyrazole-4-carboxamide] |
| > 30 | > 30 | < 0.01 | CCS(=O)(=O)Nc1ccc(-c2n[nH]c(Nc3ccccn3)c2C(N)=O)cc1OCc1ccncc1 [Compound 27, 3-(4-(ethylsulfon-amido)-3-(pyridin-4-ylmethoxy)phenyl)-5-(pyridin-2-ylamino)-1H-pyrazole-4-carboxamide] |
| > 30 | > 30 | < 0.01 | CCS(=O)(=O)Nc1ccc(-c2n[nH]c(Nc3cncc(OC)n3)c2C(N)=O)cc1 [Compound 99, 3-(4-(ethylsulfonamido)phenyl)-5-((6-methoxypyrazin-2-yl)amino)-1H-pyrazole-4-carboxamide] |
| > 30 | > 30 | < 0.01 | CCS(=O)(=O)Nc1ccc(-c2n[nH]c(Nc3cnccn3)c2C(N)=O)cc1OCCc1ccc(F)cc1 [Compound 24] |
